Results as given in US20150105252A1, “SUBSTITUTED PYRAZOLES AS HERBICIDES” (E I DU PONT DE NEMOURS AND COMPANY, priority 2013, published 2015).

Columns and labels:
[1] = test system: crabgrass, naked; test: Test E preemergence; assay type: in vivo, Digitaria nuda; details: 21 days, scale 0 to 100
Text: (§1) Seeds of plant species selected from bermudagrass (Cynodon dactylon), Surinam grass (Brachiaria decumbens), crabgrass, large (large crabgrass, Digitaria sanguinalis), crabgrass, naked (naked crabgrass, Digitaria nuda), foxtail, green (green foxtail, Setaria viridis), johnsongrass (Sorghum halepense), kochia (Kochia scoparia), morningglory (pitted morningglory, Ipomoea lacunosa), nutsedge, purple (purple nutsedge, Cyperus rotundus), ragweed (common ragweed, Ambrosia elation), mustard, black (black mustard, Brassica nigra), guineagrass (Panicum maximum), dallisgrass (Paspalum dilatatum), barnyardgrass (Echinochloa crus-galli), sandbur (southern sandbur, Cenchrus echinatus), sowthistle (common sowthistle, Sonchus oleraceous), ryegrass, Italian (Italian ryegrass, Lolium multiflorum), signalgrass (broadleaf signalgrass, Brachiaria platyphylla), dayflower, VA (Virginia (VA) dayflower, Commelina virginica), bluegrass (annual bluegrass, Poa annua), quackgrass (Elytrigia repens), mallow (common mallow, Malva sylvestris), buckwheat, wild (wild buckwheat, Polygonum convolvulus), leafy spurge (Euphorbia esula), common chickweed (Stellaria media), wild poinsettia (Euphorbia heterophylla), pigweed, palmer (palmer pigweed, Amaranthus palmeri), and pigweed (redroot pigweed, Amaranthus retroflexus) were planted into a blend of loam soil and sand and treated preemergence with test chemicals formulated in a non-phytotoxic solvent mixture which included a surfactant.
(§2) Treated plants and controls were maintained in a greenhouse for 21 days, after which time all species were compared to controls and visually evaluated. Plant response ratings, summarized in Table E, are based on a scale of 0 to 100 where 0 is no effect and 100 is complete control. A dash (-) response means no test result.

[2] = test system: dayflower, VA; test: Test F postemergence; assay type: in vivo, Commelina virginica; details: scale 0 to 100
Text: (§3) Seeds of plant species selected from corn (Zea mays), soybean (Glycine max), velvetleaf (Abutilon theophrasti), lambsquarters (Chenopodium album), wild poinsettia (Euphorbia heterophylla), pigweed, palmer (palmer pigweed, Amaranthus palmeri), common waterhemp (Amaranthus rudis), surinam grass (Brachiaria decumbens), large crabgrass (Digitaria sanguinalis), crabgrass, Brazil (Brazilian crabgrass, Digitaria horizontalis), fall panicum (Panicum dichotomiflorum), giant foxtail (Setaria faberii), green foxtail (Setaria viridis), goosegrass (Eleusine indica), johnsongrass (Sorghum halepense), common ragweed (Ambrosia elation), barnyardgrass (Echinochloa crus-galli), southern sandbur (Cenchrus echinatus), arrowleaf sida (Sida rhombifolia), Italian ryegrass (Lolium multiflorum), dayflower, VA (Virginia (VA) dayflower, Commelina virginica), field bindweed (Convolvulus arvensis), cocklebur (common cocklebur, Xanthium strumarium), morningglory (Ipomoea coccinea), nightshade (eastern black nightshade, Solanum ptycanthum), kochia (Kochia scoparia), yellow nutsedge (Cyperus esculentus), and hairy beggarticks (Bidens pilosa), were planted into a silt loam soil and treated preemergence with test chemicals formulated in a non-phytotoxic solvent mixture which included a surfactant.
(§4) At the same time, plants from these crop and weed species and also horseweed (Canada horseweed, Conyza canadensis), smartweed (ladysthumb smartweed, Polygonum persicaria), waterhemp_RES1, (ALS & Triazine resistant common waterhemp, Amaranthus rudis), and waterhemp_RES2, (ALS & HPPD resistant common waterhemp, Amaranthus rudis) were treated with postemergence applications of test chemicals formulated in the same manner. Plants ranged in height from 2 to 18 cm for postemergence treatments (1- to 4-leaf stage). Treated plants and controls were maintained in a greenhouse for 14 to 21 days, after which time all species were compared to controls and visually evaluated. Plant response ratings, summarized in Table F, are based on a scale of 0 to 100 where 0 is no effect and 100 is complete control. A dash (-) response means no test result.

[3] = test system: kochia; test: Test F postemergence; assay type: in vivo, Kochia scoparia; details: scale 0 to 100
Text: as §3, §4

[4] = test system: wild poinsettia; test: Test E preemergence; assay type: in vivo, Euphorbia heterophylla; details: 21 days, scale 0 to 100
Text: as §1, §2

[5] = test system: oat, wild; test: Test D preemergence; assay type: in vivo, Avena fatua; details: scale 0 to 100
Text: Seeds of plant species selected from bluegrass (annual bluegrass, Poa annua), blackgrass (Alopecurus myosuroides), canarygrass (littleseed canarygrass, Phalaris minor), chickweed (common chickweed, Stellaria media), galium (catchweed bedstraw, Galium aparine), bromegrass, downy (downy bromegrass, Bromus tectorum), field poppy (Papaver rhoeas), field violet (Viola arvensis), foxtail, green (green foxtail, Setaria viridis), deadnettle (henbit deadnettle, Lamium amplexicaule), ryegrass, Italian (Italian ryegrass, Lolium multiflorum), kochia (Kochia scoparia), lambsquarters (Chenopodium album), oilseed rape (Brassica napus), pigweed (redroot pigweed, Amaranthus retroflexus), chamomile (scentless chamomile, Matricaria inodora), speedwell (bird's-eye speedwell, Veronica persica), barley, spring (spring barley, Hordeum vulgare), wheat, spring (spring wheat, Triticum aestivum), buckwheat, wild (wild buckwheat, Polygonum convolvulus), mustard, wild (wild mustard, Sinapis arvensis), oat, wild (wild oat, Avena fatua), radish, wild (wild radish, Raphanus raphanistrum), windgrass (Apera spica-venti), Russian thistle (Salsola kali), barley, winter (winter barley, Hordeum vulgare), and wheat, winter (winter wheat, Triticum aestivum) were planted into a silt loam soil and treated preemergence with test chemicals formulated in a non-phytotoxic solvent mixture which included a surfactant.
At the same time, these species were planted in pots containing Redi-Earth® planting medium (Scotts Company, 14111 Scottslawn Road, Marysville, Ohio 43041) comprising spaghnum peat moss, vermiculite, wetting agent and starter nutrients and treated with postemergence applications of the test chemicals formulated in the same manner. Plants ranged in height from 2 to 18 cm (1- to 4-leaf stage). Treated plants and controls were maintained in a controlled growth environment for 14 to 21 days after which time all species were compared to controls and visually evaluated. Plant response ratings, summarized in Table D, are based on a scale of 0 to 100 where 0 is no effect and 100 is complete control. A dash (-) response means no test result.

[6] = test system: ducksalad; test: Test C flooded paddy test; assay type: in vivo, Heteranthera limosa; details: Flood
Procedure, shortened: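 In-water treatment: compound dosed into 3 cm flood over soil, water level unchanged throughout. Controls run alongside; visual assessment at day 13–15.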

[7] = 31 g ai/ha, scale 0 to 100 (0 no effect, 100 complete control)
[8] = 62 g ai/ha, scale 0 to 100 (0 no effect, 100 complete control)
[9] = 125 g ai/ha, scale 0 to 100 (0 no effect, 100 complete control)

Compound	Plant response rating, Crabgrass, Naked ([1]; 31 g ai/ha)	Plant response rating, Crabgrass, Naked ([1]; 62 g ai/ha)	Plant response rating, Crabgrass, Naked ([1]; 125 g ai/ha)	Plant response rating, Crabgrass, Naked ([1]; 250 g ai/ha)	Plant response rating, Dayflower, VA ([2]; Postemergence, 31 g ai/ha)	Plant response rating, Dayflower, VA ([2]; Postemergence, 125 g ai/ha)	Plant response rating, Dayflower, VA ([2]; Postemergence, 250 g ai/ha)	Plant response rating, Dayflower, VA ([2]; postemergence, 62 g ai/ha)	Plant response rating, Dayflower, VA ([2]; postemergence, 500 g ai/ha)	Plant response rating, Kochia ([3]; Postemergence, 31 g ai/ha)	Plant response rating, Kochia ([3]; Postemergence, 125 g ai/ha)	Plant response rating, Kochia ([3]; Postemergence, 250 g ai/ha)	Plant response rating, Kochia ([3]; postemergence, 62 g ai/ha)	Plant response rating, Kochia ([3]; postemergence, 500 g ai/ha)	Plant response rating, Crabgrass, Naked ([1]; 16 g ai/ha)	Plant response rating, Wild Poinsettia ([4]; 16 g ai/ha)	Plant response rating, Wild Poinsettia ([4]; 31 g ai/ha)	Plant response rating, Wild Poinsettia ([4]; 62 g ai/ha)	Plant response rating, Ducksalad [6, 7]	Plant response rating, Ducksalad [6, 8]	further results
CCc1cc(C(=O)NCC(F)(F)F)nn1Cc1ccnc(C(F)(F)F)c1 [Compound 78, 5-ethyl-N-(2,2,2-trifluoroethyl)-1-[[(2-trifluoromethyl)-4-pyridinyl]methyl]-1H-pyrazole-3-carboxamide]	95	95	100	100	20	60	90	50	98	65	90	90	90	95							
CCc1cc(C(=O)NC(C)C)nn1Cc1ccnc(C(F)(F)F)c1 [Compound 103]	100	100	100	100											100	80	95	100			Plant response rating, Wild Poinsettia ([4]; 125 g ai/ha): 100; Plant response rating, Wild Poinsettia ([4]; 250 g ai/ha): 100
CCOc1cc(C(=O)NCC(F)(F)F)nn1Cc1ccnc(C(F)(F)F)c1 [Compound 104]	100	100	100	100	35	70	90	55	95	75	90	95	80	95	95	95	100	100			Plant response rating, Wild Poinsettia ([4]; 125 g ai/ha): 100; Plant response rating, Wild Poinsettia ([4]; 250 g ai/ha): 100
CCCc1cc(C(=O)NCC(F)(F)F)nn1Cc1ccnc(C(F)(F)F)c1 [Compound 105]	100	100	100	100	20	80	85	50	90	60	90	95	90	95	90	50	80	100			Plant response rating, Wild Poinsettia ([4]; 125 g ai/ha): 100; Plant response rating, Wild Poinsettia ([4]; 250 g ai/ha): 100
CCCc1cc(C(=O)NCC(F)(F)F)nn1Cc1cc(C(F)(F)F)nn1C [Compound 138]																					Plant response rating, Oat, Wild ([5]; 62 g ai/ha): 35; Plant response rating, Oat, Wild ([5]; 125 g ai/ha): 75; Plant response rating, Oat, Wild ([5]; 250 g ai/ha): 100
CCCNC(=O)c1cc(CCCl)n(Cc2ccnc(C(F)(F)F)c2)n1 [Compound 145]																			100	100	Plant response rating, Ducksalad ([6]; 125 g ai/ha, scale 0 to 100): 100; Plant response rating, Ducksalad ([6]; 250 g ai/ha, scale 0 to 100): 100
CCOc1cc(C(=O)NC(C)C)nn1Cc1ccnc(C(F)(F)F)c1 [Compound 188]					40	70	90	50	90	40	95	90	60	95							Plant response rating, Oat, Wild ([5]; 62 g ai/ha): 100; Plant response rating, Oat, Wild ([5]; 125 g ai/ha): 100; Plant response rating, Oat, Wild ([5]; 250 g ai/ha): 100
CCOc1cc(C(=O)NC2CC2)nn1Cc1ccnc(C(F)(F)F)c1 [Compound 189]	100	100													100	65	95	100			Plant response rating, Oat, Wild ([5]; 62 g ai/ha): 45; Plant response rating, Oat, Wild ([5]; 125 g ai/ha): 75; Plant response rating, Oat, Wild ([5]; 250 g ai/ha): 100; Plant response rating, Crabgrass, Naked ([1]; 4 g ai/ha): 40; Plant response rating, Crabgrass, Naked ([1]; 8 g ai/ha): 95; Plant response rating, Wild Poinsettia ([4]; 4 g ai/ha): 10; Plant response rating, Wild Poinsettia ([4]; 8 g ai/ha): 25
CCONC(=O)c1cc(OCC)n(Cc2ccnc(C(F)(F)F)c2)n1 [Compound 195]																			0	20	Plant response rating, Ducksalad [6, 9]: 85; Plant response rating, Ducksalad ([6]; 250 g ai/ha, scale 0 to 100): 85
CCc1cc(C(=O)NC2CC2)nn1Cc1ccnc(OCC(F)(F)F)c1 [Compound 200]																			30	30	Plant response rating, Ducksalad [6, 9]: 100; Plant response rating, Ducksalad ([6]; 250 g ai/ha, scale 0 to 100): 100
CCc1cc(C(=O)NC2CC2)nn1Cc1cc(C(F)(F)C(F)(F)F)nn1C [Compound 226]																			30	60	Plant response rating, Ducksalad [6, 9]: 75
